Laboratory results reported in patent US4668664A (L'Oreal, priority 1985, dated 1987).
≈ marks a conversion by molar mass, not a printed value.

Experiments:
[1] = test system: P 37 E⊕ (sensitive); assay: Minimal Inhibiting Concentration (MIC) by the dilution method, sensitive strain P 37 E⊕; assay type: cell-based, propionibacterium acnes; conditions: Cutibacterium acnes
Excerpt: (§1) This method is described and employed by G. A. Denys et al, Antimicrobial Agents and Chemotherapy (1983), 23, 335-337 and J. J. Leyden et al, J. Am. Acad. Dermatol. (1983) 8 (1) 41-5, and utilizes as the strain of propionibacterium acnes, the P 37 strain furnished by Cunliffe and Holland.
(§2) After display of a standardized inoculum (DO=1.8 to 450 nm) on gelose medium (RCM+furazolidone), in a Petri dish, a disc of 9 mm in diameter is deposited in its center.
The two types of colonies are then retained by pulling away from the gelose medium (sterilized platinum loop):
(§3) (2) at 1 cm beyond the periphery of the inhibition zone the strains denominated P 37 E⊕ are retained.

[2] = test system: P 37 E⊖ (resistant); assay: Minimal Inhibiting Concentration (MIC) by the dilution method, resistant strain P 37 E⊖; assay type: cell-based, propionibacterium acnes; conditions: for MIC: Cutibacterium acnes, read-out: Minimal Inhibiting Concentration (MIC), P 37 E⊖ (resistant), dilution method; for relative activity on strain P 37 E⊖: in words, vs reference fatty esters / erythromycin
Method: as §1, §2
(§4) After 6 days at 36° C. in an anaerobic medium (GAS-PAK system, B.B.L.) a growth inhibition zone of the strain is clearly visible (total diameter=42 mm), the great majority of the colonies being situated at the periphery of the inhibition zone.
On the other hand, at its interior a few colonies clearly appear.
The two types of colonies are then retained by pulling away from the gelose medium (sterilized platinum loop): […]

[3] = test system: P 37 E⊕; assay: IC 50 study (inhibiting concentration at 50%), P 37 E⊕; assay type: cell-based, propionibacterium acnes; conditions: Cutibacterium acnes, read-out: IC 50 (inhibiting concentration at 50%; column head printed MIC)
Excerpt: as §3

[4] = test system: P 37 strain; assay: Growth inhibition zone, disc on gelose medium; assay type: cell-based, propionibacterium acnes; conditions: Cutibacterium acnes, 144 h; read-out: growth inhibition zone, total diameter
Method: as §2, §4

[5] = test system: P 37 E⊖; assay: IC 50 study (inhibiting concentration at 50%), P 37 E⊖; assay type: cell-based, propionibacterium acnes; conditions: Cutibacterium acnes, read-out: IC 50 (inhibiting concentration at 50%; column head printed MIC)
[6] = test system: propionibacterium acnes P 37 strain; assay: Minimal Inhibiting Concentration (MIC) by the dilution method, P 37 strain; assay type: cell-based; conditions: Cutibacterium acnes, P37STRAIN
Excerpt: as §1

[7] = test system: P 37; assay: IC 50 study (inhibiting concentration at 50%), P 37; assay type: cell-based, propionibacterium acnes; conditions: Cutibacterium acnes, 50% survivors at constant culture time, read-out: IC 50 (inhibiting concentration at 50%; column head printed MIC)

| Compound | MIC [1] [µg/mL] | MIC [2] [µg/mL] | also measured |
| --- | --- | --- | --- |
| CC/C=C\C/C=C\C/C=C\CCCCCCCC(=O)O[C@H]1[C@H](C)O[C@@H](O[C@H]2[C@H](C)[C@@H](O[C@@H]3O[C@H](C)C[C@H](N(C)C)[C@H]3O)[C@](C)(O)C[C@@H](C)C(=O)[C@H](C)[C@@H](O)[C@](C)(O)[C@@H](CC)OC(=O)[C@@H]2C)C[C@@]1(C)OC [O--α-linolenoyl-4", O-α-linolenoyl-4" erythromycin A] | 4.5 (≈ 4.53 µM) | 37 (≈ 37.2 µM) | – |
| CCCCC/C=C\C/C=C\C/C=C\C/C=C\CCCC(=O)O[C@H]1[C@H](O[C@@H]2[C@@H](C)[C@H](O[C@H]3C[C@@](C)(OC)[C@@H](O)[C@H](C)O3)[C@@H](C)C(=O)O[C@H](CC)[C@@](C)(O)[C@H](O)[C@@H](C)C(=O)[C@H](C)C[C@@]2(C)O)O[C@H](C)C[C@@H]1N(C)C [O--arachidonoyl-2', O-arachidonoyl-2' erythromycin A] | 6.25 (≈ 6.13 µM) | > 50 | – |
| CCCCCCCC/C=C\CCCCCCCC(=O)O[C@H]1[C@H](O[C@@H]2[C@@H](C)[C@H](O[C@H]3C[C@@](C)(OC)[C@@H](O)[C@H](C)O3)[C@@H](C)C(=O)O[C@H](CC)[C@@](C)(O)[C@H](O)[C@@H](C)C(=O)[C@H](C)C[C@@]2(C)O)O[C@H](C)C[C@@H]1N(C)C [O--oleoyl-2'] | 50 (≈ 50.1 µM) | 100 (≈ 100 µM) | – |
| CCCCC/C=C\C/C=C\CCCCCCCC(=O)O[C@H]1[C@H](C)O[C@@H](O[C@H]2[C@H](C)[C@@H](O[C@@H]3O[C@H](C)C[C@H](N(C)C)[C@H]3O)[C@](C)(O)C[C@@H](C)C(=O)[C@H](C)[C@@H](O)[C@](C)(O)[C@@H](CC)OC(=O)[C@@H]2C)C[C@@]1(C)OC [O--linoleoyl-4", O-linoleoyl-4" erythromycin A] | 3.5 (≈ 3.51 µM) | 28 (≈ 28.1 µM) | – |
| CCCCC/C=C/C/C=C/CCCCCCCC(=O)O[C@H]1[C@H](O[C@@H]2[C@@H](C)[C@H](O[C@H]3C[C@@](C)(OC)[C@@H](O)[C@H](C)O3)[C@@H](C)C(=O)O[C@H](CC)[C@@](C)(O)[C@H](O)[C@@H](C)C(=O)[C@H](C)C[C@@]2(C)O)O[C@H](C)C[C@@H]1N(C)C [O--linoelaidoyl-2', O-linoelaidoyl-2' erythromycin A] | 25 (≈ 25.1 µM) | 100 (≈ 100 µM) | relative activity on strain P 37 E⊖ [2]: less active |
| CC[C@H]1OC(=O)[C@H](C)[C@@H](O[C@H]2C[C@@](C)(OC)[C@@H](O)[C@H](C)O2)[C@H](C)[C@@H](O[C@@H]2O[C@H](C)C[C@H](N(C)C)[C@H]2O)[C@](C)(O)C[C@@H](C)C(=O)[C@H](C)[C@@H](O)[C@]1(C)O [Erythromycin, erythromycin A] | 0.78 (≈ 1.06 µM) | > 50 | IC50 [3]: 5 µg/mL (≈ 6.81 µM); zone of inhibition at 50 µg/disc [4]: 42 mm; IC50 [5]: ~100 µg/mL (≈ 136 µM); Minimal Inhibiting Concentration (MIC) ([2]; P 37 E⊖ (resistant), dilution method): 50 µg/mL; MIC [6]: 0.78 µg/mL (≈ 1.06 µM); IC50 [7]: 50 µg/mL (≈ 68.1 µM) |
| CCCCCCCCCCCCCCCCCC(=O)O[C@H]1[C@H](O[C@@H]2[C@@H](C)[C@H](O[C@H]3C[C@@](C)(OC)[C@@H](O)[C@H](C)O3)[C@@H](C)C(=O)O[C@H](CC)[C@@](C)(O)[C@H](O)[C@@H](C)C(=O)[C@H](C)C[C@@]2(C)O)O[C@H](C)C[C@@H]1N(C)C [O--stearoyl-2'] | < 1.56 | > 50 | – |
| CCCCC/C=C\C/C=C\CCCCCCCC(=O)O[C@H]1[C@H](O[C@@H]2[C@@H](C)[C@H](O[C@H]3C[C@@](C)(OC)[C@@H](O)[C@H](C)O3)[C@@H](C)C(=O)O[C@H](CC)[C@@](C)(O)[C@H](O)[C@@H](C)C(=O)[C@H](C)C[C@@]2(C)O)O[C@H](C)C[C@@H]1N(C)C [O--linolenoyl-2', O-linoleoyl-2' erythromycin A] | 4 (≈ 4.01 µM) | 16 (≈ 16.1 µM) | – |
| CCCCC/C=C/C/C=C/CCCCCCCC(=O)O[C@H]1[C@H](C)O[C@@H](O[C@H]2[C@H](C)[C@@H](O[C@@H]3O[C@H](C)C[C@H](N(C)C)[C@H]3O)[C@](C)(O)C[C@@H](C)C(=O)[C@H](C)[C@@H](O)[C@](C)(O)[C@@H](CC)OC(=O)[C@@H]2C)C[C@@]1(C)OC [O--linoelaidoyl-4", O-linoelaidoyl-4" erythromycin A] | 25 (≈ 25.1 µM) | 100 (≈ 100 µM) | relative activity on strain P 37 E⊖ [2]: less active |
